Blank lines part the entries; values can stand above or below the compound they belong to.
Target: T1, α4β1 integrin (Homo sapiens, UniProt P05556+P13612)
T1 construct: endogenous in cells; host or cells: Ramos cells
Experiment: Adhesion of calcein-labeled Ramos cells to CS1 (fibronectin) peptide conjugated ovalbumin
Format: cell-based
Conditions: Ramos cell adhesion to CS1 conjugated ovalbumin
Protocol: A procedure in which a 26-amino acid peptide containing the CS1 sequence of fibronectin with an N-terminal Cys ([…]) was coupled to maleimide activated ovalbumin was used to determine the efficacy of the compounds synthesized. Bovine serum albumin (BSA) and CS1 conjugated ovalbumin were coated onto 96-well polystyrene plates at 0.5 μg/ml in TBS (50 mM TRIS, pH 7.5; 150 mM NaCl) at 4° C. for 16 hours. The plates were washed three times with TBS and blocked with TBS containing 3% BSA at room temperature for 4 hours. Blocked plates were washed three times in binding buffer (TBS; 1 mM MgCl2; 1 mM CaCl2; 1 mM MnCl2) prior to assay. Ramos cells fluorescently labeled with calcein AM were resuspended in binding buffer (10^7 cells/ml) and diluted 1:2 with same buffer with or without compound. 100 μM of compound was added. The cells were added immediately to the wells (2.5×10^5 cells/well) and incubated for 30 minutes at 37° C. Following three washes with binding buffer, adherent cells were lysed and quantitated using a fluorometer. IC50 is defined as the dose required to give 50% inhibition, measured in μM for Tables 2 and 4. The lower the IC50 value and the greater the percentage of inhibition, the more efficient the compound is at prevention of cell adhesion.

[1] = Table 7, dose required to give 50% inhibition
[2] = Table 5, dose required to give 50% inhibition

T1 sequence (P13612 34-1032): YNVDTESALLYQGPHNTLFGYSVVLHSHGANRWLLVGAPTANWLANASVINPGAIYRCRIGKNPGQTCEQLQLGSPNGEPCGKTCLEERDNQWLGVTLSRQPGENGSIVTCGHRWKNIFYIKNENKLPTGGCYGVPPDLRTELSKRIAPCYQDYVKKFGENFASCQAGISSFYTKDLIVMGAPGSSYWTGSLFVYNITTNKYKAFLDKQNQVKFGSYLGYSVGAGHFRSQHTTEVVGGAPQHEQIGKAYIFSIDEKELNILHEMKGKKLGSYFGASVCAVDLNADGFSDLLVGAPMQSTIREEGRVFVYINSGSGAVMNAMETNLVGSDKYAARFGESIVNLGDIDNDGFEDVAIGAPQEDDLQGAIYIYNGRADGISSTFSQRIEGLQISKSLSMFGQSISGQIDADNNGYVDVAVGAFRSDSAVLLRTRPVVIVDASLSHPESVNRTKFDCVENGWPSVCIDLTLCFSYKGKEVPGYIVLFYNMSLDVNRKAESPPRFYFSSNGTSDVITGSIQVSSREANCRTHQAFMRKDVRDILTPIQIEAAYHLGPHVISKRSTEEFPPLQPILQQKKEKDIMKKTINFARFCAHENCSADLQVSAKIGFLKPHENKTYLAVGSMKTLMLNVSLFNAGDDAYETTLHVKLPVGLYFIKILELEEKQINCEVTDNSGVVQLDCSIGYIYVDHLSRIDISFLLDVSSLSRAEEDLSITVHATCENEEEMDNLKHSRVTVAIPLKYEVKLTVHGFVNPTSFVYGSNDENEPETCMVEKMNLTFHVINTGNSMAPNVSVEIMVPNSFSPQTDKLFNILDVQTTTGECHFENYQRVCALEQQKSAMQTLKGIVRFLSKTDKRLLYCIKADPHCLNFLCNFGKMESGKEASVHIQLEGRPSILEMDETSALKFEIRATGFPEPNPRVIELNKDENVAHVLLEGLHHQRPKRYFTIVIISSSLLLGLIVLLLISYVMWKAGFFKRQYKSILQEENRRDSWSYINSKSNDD
T1 sequence (P05556 21-798): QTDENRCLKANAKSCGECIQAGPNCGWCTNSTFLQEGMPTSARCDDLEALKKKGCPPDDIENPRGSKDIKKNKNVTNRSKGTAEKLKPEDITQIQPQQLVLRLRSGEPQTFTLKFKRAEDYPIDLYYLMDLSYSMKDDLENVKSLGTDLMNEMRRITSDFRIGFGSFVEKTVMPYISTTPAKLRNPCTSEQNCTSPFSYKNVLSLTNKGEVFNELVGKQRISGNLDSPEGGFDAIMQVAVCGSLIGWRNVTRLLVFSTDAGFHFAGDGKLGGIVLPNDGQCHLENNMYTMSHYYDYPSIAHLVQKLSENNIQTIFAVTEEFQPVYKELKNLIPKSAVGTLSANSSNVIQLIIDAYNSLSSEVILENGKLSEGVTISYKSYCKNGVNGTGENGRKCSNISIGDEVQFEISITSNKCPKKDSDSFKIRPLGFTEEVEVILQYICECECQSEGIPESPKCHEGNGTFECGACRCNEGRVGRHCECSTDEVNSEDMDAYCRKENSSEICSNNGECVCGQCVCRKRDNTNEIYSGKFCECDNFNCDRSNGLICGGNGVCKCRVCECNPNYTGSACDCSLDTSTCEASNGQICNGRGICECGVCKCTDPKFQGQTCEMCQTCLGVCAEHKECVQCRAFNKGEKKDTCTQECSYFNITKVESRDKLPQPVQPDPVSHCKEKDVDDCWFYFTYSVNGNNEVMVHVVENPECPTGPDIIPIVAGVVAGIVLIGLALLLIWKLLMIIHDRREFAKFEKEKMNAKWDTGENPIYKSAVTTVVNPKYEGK

IC50 (Table 3, 30 minutes at 37° C.): 20 nM
Compound: Cc1ccc([C@H](CC(=O)O)NC(=O)Nc2c(Nc3ccccc3)ccn(Cc3ccccc3Cl)c2=O)cc1

IC50 [1]: 8 nM
Compound: CCOc1cccc(Cl)c1Cn1cc(C)c(O)c(NC(=O)NC(CC(=O)O)c2ccc(S(C)(=O)=O)cc2)c1=O (centres unmarked)

IC50 (Table 4, 30 minutes at 37° C.): 1000 nM
Compound: Cc1ccc([C@H](CC(=O)O)NC(=O)Nc2cccn(Cc3ccccc3C(F)(F)F)c2=O)cc1

IC50 [1]: 13 nM
Compound: CCOc1cccc(Cl)c1Cn1cc(C)c(O)c(NC(=O)NC(CC(=O)O)c2ccc3ccccc3c2)c1=O (centres unmarked)

IC50 [1]: 12 nM
Compound: CCCOc1cccc([C@H](CC(=O)O)NC(=O)Nc2c(O)c3c(n(Cc4c(C)cccc4Cl)c2=O)CCC3)c1

IC50 (Table 4, 30 minutes at 37° C.): 1300 nM
Compound: Cc1ccc([C@H](CC(=O)O)NC(=O)Nc2cccn(Cc3ccc(Cl)s3)c2=O)cc1

IC50 (Table 4, 30 minutes at 37° C.): 700 nM
Compound: COc1cc(OC)cc([C@H](CC(=O)O)NC(=O)Nc2cccn(Cc3cccs3)c2=O)c1

IC50 [2]: 20 nM
Compound: Cc1ccc([C@H](CC(=O)O)NC(=O)Nc2c(O)c(C)cn(Cc3ccc(Cl)cc3)c2=O)cc1

IC50 (Table 4, 30 minutes at 37° C.): 50 nM
Compound: Cc1ccc([C@H](CC(=O)O)NC(=O)Nc2cccn(Cc3ccccc3Br)c2=O)cc1

IC50 (Table 4, 30 minutes at 37° C.): 800 nM
Compound: O=C(O)C[C@H](NC(=O)Nc1cccn(Cc2cccc(C(F)(F)F)c2)c1=O)c1ccc2c(c1)OCO2

IC50 [1]: 40 nM
Compound: Cc1ccc(-c2ccc([C@H](CC(=O)O)NC(=O)Nc3c(O)ccn(Cc4ccccc4Cl)c3=O)cc2)cc1

IC50 [1]: 6000 nM
Compound: Cc1ccc([C@H](Cc2nnn[nH]2)NC(=O)Nc2c(O)c(C)cn(Cc3ccccc3Cl)c2=O)cc1

IC50 [1]: 30 nM
Compound: CCOc1cc([C@H](CC(=O)O)NC(=O)Nc2c(O)c3c(n(Cc4ccccc4Cl)c2=O)CCC3)ccc1Cl

IC50 (Table 3, 30 minutes at 37° C.): 30 nM | IC50 (Table 4, 30 minutes at 37° C.): 30 nM
Compound: O=C(O)CC(NC(=O)Nc1c(O)ccn(Cc2ccccc2Cl)c1=O)c1cccc(Cl)c1 (centres unmarked)

IC50 [2]: 17 nM
Compound: Cc1ccc([C@H](CC(=O)O)NC(=O)Nc2c(O)ccn(Cc3cccc(C(F)(F)F)c3)c2=O)cc1

IC50 (Table 6, 30 minutes at 37° C.): 30 nM
Compound: CCOc1cccc([C@H](CC(=O)O)NC(=O)Nc2c(O)c(C)c(C)n(Cc3ccccc3Cl)c2=O)c1

IC50 [2]: 35 nM
Compound: COc1c(C)cc([C@H](CC(=O)O)NC(=O)Nc2c(O)ccn(Cc3ccccc3Cl)c2=O)cc1C

IC50 (Table 6, 30 minutes at 37° C.): 45 nM
Compound: Cc1ccc([C@H](CC(=O)O)NC(=O)Nc2c(O)c(C)cn(Cc3c(C)cccc3Cl)c2=O)cc1C

IC50 (Table 3, 30 minutes at 37° C.): 10 nM
Compound: Cc1ccc([C@H](CC(=O)O)NC(=O)Nc2c(C)ccn(Cc3ccccc3Cl)c2=O)cc1C [(3S)-3-{[({1-[(2-chlorophenyl)methyl]-4-methyl-2-oxo-1,2-dihydro-3-pyridinyl}amino)carbonyl]amino}-3-(3,4-dimethylphenyl)propanoic acid]

IC50 [1]: 8 nM
Compound: O=C(O)C[C@H](NC(=O)Nc1c(O)c2c(n(Cc3ccccc3Cl)c1=O)CCC2)c1ccc2c(c1)CCC2

IC50 (Table 6, 30 minutes at 37° C.): 4 nM
Compound: CCOc1ccc([C@H](CC(=O)O)NC(=O)Nc2c(O)c3ccccc3n(Cc3ccccc3Cl)c2=O)cc1OCC

IC50 [1]: 3 nM
Compound: CCOc1cc([C@H](CC(=O)O)NC(=O)Nc2c(O)c3c(n(Cc4ccccc4Cl)c2=O)CCC3)cc(Cl)c1OCC

IC50 [2]: > 10000 nM
Compound: Cc1ccc(N(CC(=O)O)NC(=O)Nc2c(O)ccn(Cc3ccccc3Cl)c2=O)cc1

IC50 [1]: 4 nM
Compound: CCOc1cccc(Cl)c1Cn1c(C)c(C)c(O)c(NC(=O)N[C@@H](CC(=O)O)c2ccc(C)cc2)c1=O

IC50 (Table 4, 30 minutes at 37° C.): 200 nM
Compound: Cc1cccc([C@H](CC(=O)O)NC(=O)Nc2cccn(Cc3ccccc3Cl)c2=O)c1

IC50 (Table 4, 30 minutes at 37° C.): 1000 nM
Compound: O=C(O)C[C@H](NC(=O)Nc1cccn(Cc2cccs2)c1=O)c1ccccc1

IC50 [1]: 50 nM
Compound: Cc1cc(C)cc(-c2cccc([C@H](CC(=O)O)NC(=O)Nc3c(O)c(C)cn(Cc4ccccc4Cl)c3=O)c2)c1

IC50 (Table 3, 30 minutes at 37° C.): 10 nM
Compound: Cc1ccc([C@H](CC(=O)O)NC(=O)Nc2c(-c3ccccc3)ccn(Cc3ccccc3Cl)c2=O)cc1 [(3S)-3-{[({1-[(2-chlorophenyl)methyl]-2-oxo-4-phenyl-1,2-dihydro-3-pyridinyl}amino)carbonyl]amino}-3-(4-methylphenyl)propanoic acid]

IC50 (Table 3, 30 minutes at 37° C.): 2 nM
Compound: COCCOCCOc1ccn(Cc2ccccc2Cl)c(=O)c1NC(=O)N[C@@H](CC(=O)O)c1ccc(C)cc1

IC50 (Table 3, 30 minutes at 37° C.): 20 nM
Compound: Cc1ccc([C@H](CC(=O)O)NC(=O)Nc2c(C)ccn(Cc3ccccc3F)c2=O)cc1

IC50 [2]: 7 nM
Compound: Cc1ccc([C@H](CC(=O)O)NC(=O)Nc2c(O)ccn(Cc3c(Cl)cccc3C#N)c2=O)cc1 [(3S)-3-[({[1-(2-chloro-6-cyanobenzyl)-4-hydroxy-2-oxo-1,2-dihydropyridin-3-yl]amino}carbonyl)amino]-3-(4-methylphenyl)propanoic acid]

IC50 (Table 4, 30 minutes at 37° C.): 80 nM
Compound: COc1cc([C@H](CC(=O)O)NC(=O)Nc2cccn(Cc3ccccc3Br)c2=O)cc(OC)c1OC

IC50 (Table 6, 30 minutes at 37° C.): 3 nM
Compound: CCOc1cccc([C@H](CC(=O)O)NC(=O)Nc2c(O)c(C)cn(Cc3c(Cl)cccc3OC)c2=O)c1

IC50 (Table 6, 30 minutes at 37° C.): 7 nM
Compound: CCOc1cccc(Cl)c1Cn1ccc(O)c(NC(=O)N[C@@H](CC(=O)O)c2ccc(C)cc2)c1=O

IC50 (Table 6, 30 minutes at 37° C.): 5 nM
Compound: COc1ccc2cc([C@H](CC(=O)O)NC(=O)Nc3c(O)c(C)cn(Cc4ccccc4Cl)c3=O)ccc2c1

IC50 [2]: 0.6 nM
Compound: CCOc1ccc([C@H](CC(=O)O)NC(=O)Nc2c(O)c(C)cn(Cc3ccccc3Cl)c2=O)cc1OCC [(3S)-3-[({[1-(2-chlorobenzyl)-4-hydroxy-5-methyl-2-oxo-1,2-dihydropyridin-3-yl]amino}carbonyl)amino]-3-(3,4-diethoxyphenyl)propanoic acid]

IC50 (Table 4, 30 minutes at 37° C.): 300 nM
Compound: COc1cc([C@H](CC(=O)O)NC(=O)Nc2cccn(Cc3cccs3)c2=O)cc(OC)c1OC

IC50 [2]: 220 nM
Compound: O=C(O)C[C@H](NC(=O)Nc1c(O)ccn(Cc2ccccc2Cl)c1=O)c1cc(C(F)(F)F)cc(C(F)(F)F)c1

IC50 (Table 6, 30 minutes at 37° C.): 15 nM
Compound: Cc1ccc([C@H](CC(=O)O)NC(=O)Nc2c(O)c(C)cn(Cc3cc(Cl)ccc3F)c2=O)cc1

IC50 [1]: 6 nM
Compound: Cc1cn(Cc2ccccc2Cl)c(=O)c(NC(=O)N[C@@H](CC(=O)O)c2ccc(OC3CC3)cc2)c1O

IC50 (Table 4, 30 minutes at 37° C.): 30 nM
Compound: CCCS(=O)(=O)Nc1ccn(Cc2ccccc2Cl)c(=O)c1NC(=O)N[C@@H](CC(=O)O)c1ccc(C)cc1

IC50 (Table 6, 30 minutes at 37° C.): 3 nM
Compound: CCOc1cc(OCC)cc([C@H](CC(=O)O)NC(=O)Nc2c(O)c(C)cn(Cc3ccccc3Cl)c2=O)c1

IC50 (Table 6, 30 minutes at 37° C.): 3 nM
Compound: CCOc1ccc([C@H](CC(=O)O)NC(=O)Nc2c(O)c(C)cn(Cc3c(C)cccc3Cl)c2=O)cc1OCC

IC50 (Table 3, 30 minutes at 37° C.): 20 nM
Compound: O=C(O)C[C@H](NC(=O)Nc1c(O)ccn(Cc2ccccc2Cl)c1=O)c1cccc(C(F)(F)F)c1 [(3S)-3-{[({1-[(2-chlorophenyl)methyl]-4-hydroxy-2-oxo-1,2-dihydro-3-pyridinyl}amino)carbonyl]amino}-3-[3-(trifluoromethyl)phenyl]propanoic acid]

IC50 (Table 3, 30 minutes at 37° C.): 10 nM
Compound: CCCNc1ccn(Cc2ccccc2Cl)c(=O)c1NC(=O)N[C@@H](CC(=O)O)c1ccc(C)cc1 [(3S)-3-[({[1-[(2-chlorophenyl)methyl]-2-oxo-4-(propylamino)-1,2-dihydro-3-pyridinyl]amino}carbonyl)amino]-3-(4-methylphenyl)propanoic acid]

IC50 [1]: 27 nM
Compound: CCOc1cccc(-c2ccc([C@H](CC(=O)O)NC(=O)Nc3c(O)ccn(Cc4ccccc4Cl)c3=O)cc2)c1

IC50 (Table 3, 30 minutes at 37° C.): 3 nM
Compound: Cc1ccc([C@H](CC(=O)O)NC(=O)Nc2c(NC(C)(C)C)ccn(Cc3ccccc3Cl)c2=O)cc1 [(3S)-3-{[({1-[(2-chlorophenyl)methyl]-4-[(1,1-dimethylethyl)amino]-2-oxo-1,2-dihydro-3-pyridinyl}amino)carbonyl]amino}-3-(4-methylphenyl)propanoic acid]

IC50 [1]: 3 nM
Compound: CCOc1cccc(Cl)c1Cn1cc(C)c(O)c(NC(=O)N[C@@H](CC(=O)O)c2ccc3ccn(C)c3c2)c1=O [(3S)-3-[({[1-(2-chloro-6-ethoxybenzyl)-4-hydroxy-5-methyl-2-oxo-1,2-dihydropyridin-3-yl]amino}carbonyl)amino]-3-(1-methyl-1H-indol-6-yl)propanoic acid]

IC50 [1]: 3 nM
Compound: CCOc1cccc(Cl)c1Cn1cc(C)c(O)c(NC(=O)N[C@@H](CC(=O)O)c2ccc3cc(OC)ccc3c2)c1=O [(3S)-3-[({[1-(2-chloro-6-ethoxybenzyl)-4-hydroxy-5-methyl-2-oxo-1,2-dihydropyridin-3-yl]amino}carbonyl)amino]-3-(6-methoxy-2-naphthyl)propanoic acid]

IC50 (Table 6, 30 minutes at 37° C.): 150 nM
Compound: Cc1ccc(Cn2cc(C)c(O)c(NC(=O)N[C@@H](CC(=O)O)c3ccc(C)cc3)c2=O)cc1

IC50 [2]: 30 nM
Compound: Cc1ccc([C@H](CC(=O)O)NC(=O)Nc2c(O)ccn(Cc3ccccc3S(=O)(=O)N(C)C)c2=O)cc1

IC50 [1]: 4 nM
Compound: CCOc1cccc(Cl)c1Cn1c2c(c(O)c(NC(=O)N[C@@H](CC(=O)O)c3cccc(CC(C)C)c3)c1=O)CCC2

IC50 (Table 3, 30 minutes at 37° C.): 3 nM
Compound: COc1ccc([C@H](CC(=O)O)NC(=O)Nc2c(C)ccn(Cc3ccccc3Cl)c2=O)cc1 [(3S)-3-{[({1-[(2-chlorophenyl)methyl]-4-methyl-2-oxo-1,2-dihydro-3-pyridinyl}amino)carbonyl]amino}-3-[4-(methyloxy)phenyl]propanoic acid]

IC50 [2]: 9 nM
Compound: Cc1ccc([C@H](CC(=O)O)NC(=O)Nc2c(O)ccn(Cc3ccccc3C#N)c2=O)cc1 [(3S)-3-[({[1-(2-cyanobenzyl)-4-hydroxy-2-oxo-1,2-dihydropyridin-3-yl]amino}carbonyl)amino]-3-(4-methylphenyl)propanoic acid]

IC50 (Table 4, 30 minutes at 37° C.): 2000 nM
Compound: CC(C)(C)c1ccc([C@H](CC(=O)O)NC(=O)Nc2cccn(Cc3cccs3)c2=O)cc1

Reference: US6972296B2, “Carboxylic acid derivatives that inhibit the binding of integrins to their receptors” (Encysive Pharmaceuticals Inc., priority 1999, dated 2005)
